Reference: PMC11588093, “MurA-catalyzed synthesis of 5-enolpyruvylshikimate-3-phosphate confers glyphosate tolerance in bryophytes” (Proceedings of the National Academy of Sciences of the …, 2024)

Legend:
MpMurA [1] = target: T1, MpMurA (Marchantia polymorpha, UniProt A0A2R6X746); assay: phosphate release by malachite green; EPSP product by LC-MS/MS; format: biochemical; settings: 1 mM S3P, 1 mM PEP; pH 7.5, 25 °C
T1 construct: gene MARPO_0032s0102; codon-optimised synthetic gene, E. coli BL21(DE3); His-tag removed with 3C protease; IMAC and SEC
T1 sequence (A0A2R6X746 46-482): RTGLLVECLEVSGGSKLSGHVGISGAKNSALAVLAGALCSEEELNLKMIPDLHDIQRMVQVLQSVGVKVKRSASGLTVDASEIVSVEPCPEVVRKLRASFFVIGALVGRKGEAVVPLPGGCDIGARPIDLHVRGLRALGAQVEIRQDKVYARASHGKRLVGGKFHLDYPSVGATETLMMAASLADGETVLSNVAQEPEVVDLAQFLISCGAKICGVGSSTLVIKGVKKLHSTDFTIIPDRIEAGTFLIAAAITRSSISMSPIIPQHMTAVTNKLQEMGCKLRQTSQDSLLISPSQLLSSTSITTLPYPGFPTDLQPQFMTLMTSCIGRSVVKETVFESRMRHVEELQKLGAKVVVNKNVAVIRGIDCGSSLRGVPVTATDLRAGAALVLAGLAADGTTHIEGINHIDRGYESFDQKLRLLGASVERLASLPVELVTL
From the text: phosphate release by malachite green; EPSP product by LC-MS/MS on MpMurA | Phosphate was produced by MpMurA in the presence of […] and PEP

MpMurA [2] = target: T1, MpMurA; assay: phosphate release by malachite green; format: biochemical; settings: 1 mM UDP-GlcNAc, 1 mM PEP; pH 7.5, 25 °C
MpEPSPS = target: T2, MpEPSPS (Marchantia polymorpha, UniProt A0A2R6X5Y9); assay: dose-response of enzyme activity, phosphate release by malachite green; format: biochemical
T2 construct: gene MARPO_0034s0104; codon-optimised synthetic gene, E. coli BL21(DE3); His-tag removed with 3C protease; IMAC and SEC
T2 sequence (A0A2R6X5Y9 79-527): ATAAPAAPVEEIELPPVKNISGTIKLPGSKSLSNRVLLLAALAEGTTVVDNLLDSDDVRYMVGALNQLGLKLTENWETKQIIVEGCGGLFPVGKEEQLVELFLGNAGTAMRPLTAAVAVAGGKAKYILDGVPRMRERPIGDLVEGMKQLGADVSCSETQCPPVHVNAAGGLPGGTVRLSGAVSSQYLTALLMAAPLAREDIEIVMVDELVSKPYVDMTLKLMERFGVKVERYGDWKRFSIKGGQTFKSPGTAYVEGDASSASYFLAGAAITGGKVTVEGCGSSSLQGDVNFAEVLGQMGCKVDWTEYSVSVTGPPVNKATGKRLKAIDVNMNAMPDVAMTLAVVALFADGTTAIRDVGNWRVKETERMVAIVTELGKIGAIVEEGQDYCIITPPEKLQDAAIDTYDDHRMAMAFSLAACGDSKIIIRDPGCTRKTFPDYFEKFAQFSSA

AtEPSPS = target: T3, AtEPSPS (Arabidopsis thaliana, UniProt P05466); assay: as above; format: biochemical
T3 construct: gene At2g45300; codon-optimised synthetic gene, E. coli BL21(DE3); His-tag removed with 3C protease; IMAC and SEC
T3 sequence (P05466 77-520): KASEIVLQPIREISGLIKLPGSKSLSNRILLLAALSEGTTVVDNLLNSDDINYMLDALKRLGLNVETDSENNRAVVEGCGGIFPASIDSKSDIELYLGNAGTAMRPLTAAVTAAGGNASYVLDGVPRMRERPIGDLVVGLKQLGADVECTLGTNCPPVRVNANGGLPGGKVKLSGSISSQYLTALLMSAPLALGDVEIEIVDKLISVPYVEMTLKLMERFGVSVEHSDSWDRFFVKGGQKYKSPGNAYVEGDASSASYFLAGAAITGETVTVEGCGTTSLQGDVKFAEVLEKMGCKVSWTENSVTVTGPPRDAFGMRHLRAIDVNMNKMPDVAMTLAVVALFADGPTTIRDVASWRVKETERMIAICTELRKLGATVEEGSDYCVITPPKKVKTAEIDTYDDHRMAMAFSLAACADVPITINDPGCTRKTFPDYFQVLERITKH

purified protein = substrate: C=C(OP(=O)(O)O)C(=O)O; assay: purified protein; settings: co-substrate S3P, pH 7.5, 25 °C
[3] = substrate: O=C(O)C1=C[C@@H](OP(=O)(O)O)[C@@H](O)[C@H](O)C1; assay: Michaelis-Menten kinetics, phosphate release by malachite green; format: biochemical, Arabidopsis thaliana; settings: co-substrate PEP, pH 7.5, 25 °C
[4] = substrate: C=C(OP(=O)(O)O)C(=O)O; assay: as above; format: biochemical, Marchantia polymorpha; settings: co-substrate S3P, pH 7.5, 25 °C
[5] = substrate: O=C(O)C1=C[C@@H](OP(=O)(O)O)[C@@H](O)[C@H](O)C1; assay: as above; format: biochemical, Marchantia polymorpha; settings: co-substrate PEP, pH 7.5, 25 °C

## O=C(O)C1=C[C@@H](OP(=O)(O)O)[C@@H](O)[C@H](O)C1 [S3P]
MpMurA [1]
  phosphate release by malachite green; EPSP product by LC-MS/MS: Phosphate was produced by MpMurA in the presence of S3P and PEP

## CC(=O)N[C@H]1[C@@H](OP(=O)(O)OP(=O)(O)OC[C@H]2O[C@@H](n3ccc(=O)[nH]c3=O)[C@H](O)[C@@H]2O)O[C@H](CO)[C@@H](O)[C@@H]1O [UDP-GlcNAc]
MpMurA [2]
  phosphate release by malachite green: the activity of MpMurA with its canonical substrates, UDP-GlcNAc and PEP, were measured

## O=C(O)CNCP(=O)(O)O [glyphosate]
MpEPSPS
  IC50: 9.6 ± 9.12 µM
AtEPSPS
  IC50: 14.5 ± 5.98 µM

B1: AtEPSPS (Arabidopsis thaliana) (protein)
chain: KASEIVLQPIREISGLIKLPGSKSLSNRILLLAALSEGTTVVDNLLNSDDINYMLDALKRLGLNVETDSENNRAVVEGCGGIFPASIDSKSDIELYLGNAGTAMRPLTAAVTAAGGNASYVLDGVPRMRERPIGDLVVGLKQLGADVECTLGTNCPPVRVNANGGLPGGKVKLSGSISSQYLTALLMSAPLALGDVEIEIVDKLISVPYVEMTLKLMERFGVSVEHSDSWDRFFVKGGQKYKSPGNAYVEGDASSASYFLAGAAITGETVTVEGCGTTSLQGDVKFAEVLEKMGCKVSWTENSVTVTGPPRDAFGMRHLRAIDVNMNKMPDVAMTLAVVALFADGPTTIRDVASWRVKETERMIAICTELRKLGATVEEGSDYCVITPPKKVKTAEIDTYDDHRMAMAFSLAACADVPITINDPGCTRKTFPDYFQVLERITKH
notes: codon-optimised synthetic gene, E. coli BL21(DE3); His-tag removed with 3C protease; IMAC and SEC
Purified protein
  Km: 163 ± 34 µM
[3]
  Km: 196.7 ± 44.63 µM

B2: MpEPSPS (Marchantia polymorpha) (protein)
chain: ATAAPAAPVEEIELPPVKNISGTIKLPGSKSLSNRVLLLAALAEGTTVVDNLLDSDDVRYMVGALNQLGLKLTENWETKQIIVEGCGGLFPVGKEEQLVELFLGNAGTAMRPLTAAVAVAGGKAKYILDGVPRMRERPIGDLVEGMKQLGADVSCSETQCPPVHVNAAGGLPGGTVRLSGAVSSQYLTALLMAAPLAREDIEIVMVDELVSKPYVDMTLKLMERFGVKVERYGDWKRFSIKGGQTFKSPGTAYVEGDASSASYFLAGAAITGGKVTVEGCGSSSLQGDVNFAEVLGQMGCKVDWTEYSVSVTGPPVNKATGKRLKAIDVNMNAMPDVAMTLAVVALFADGTTAIRDVGNWRVKETERMVAIVTELGKIGAIVEEGQDYCIITPPEKLQDAAIDTYDDHRMAMAFSLAACGDSKIIIRDPGCTRKTFPDYFEKFAQFSSA
notes: as for B1
[4]
  Km: 180 ± 26 µM
[5]
  Km: 119.7 ± 12.82 µM
